# Tested on: HpFT-2 (Helicobacter pylori α1,3 fucosyltrasferase)
# Assay: Conversion efficiency of α1,3 fucosyltrasferase towards GDP-fucose derivatives with different jointer on the antibodies (LC-MS)
# Assay type: biochemical
# Conditions: substrate 1 mM, HpFT-2 0.5 mg/mL
# Protocol: Trastuzumab-(GalNAzβ1,4)GlcNAc (2 mg/mL) was incubated with GDP-FAzP4Biotin (1 mM) or GDP-FAmP4Biotin (1 mM) and HpFT-2 (0.5 mg/mL) in 50 mM Tris-HCl buffer (pH 7.5) with 5 mM MgCl2 at 30° C. for 2 hours. […] The reaction mixtures were then quenched by adding LacNAc (final concentration 10 mM) and purified with protein A resin and analyzed by LC-MS respectively.
# [1] = antibody Trastuzumab-(Fucα1,6)(Galβ1,4)GlcNAc 2 mg/mL, reaction time 10 min, average MAR/2*100%
# [2] = antibody Trastuzumab-(GalNAzβ1,4)GlcNAc 2 mg/mL, reaction time 2 h, average MAR/2*100%
# [3] = antibody Trastuzumab-(Galβ1,4)GlcNAc 2 mg/mL, reaction time 10 min, average MAR/2*100%
Compound,% of conversion [1] [%],% of conversion [2] [%],% of conversion [3] [%],"% of conversion (antibody Trastuzumab-G2F 2 mg/mL, reaction time 2 h, average MAR/4*100%) [%]"
Nc1nc2c(ncn2[C@@H]2O[C@H](COP(=O)(O)OP(=O)(O)O[C@H]3OC(CNC(=O)CCOCCOCCOCCOCCNC(=O)CCCC[C@@H]4SC[C@@H]5NC(=O)N[C@@H]54)[C@@H](O)C(O)C3O)C(O)C2O)c(=O)[nH]1 (stereo partly shown) [GDP-FAmP4Biotin],42 ± 5.3,77 ± 5.0,83 ± 1.2,
Nc1nc2c(ncn2[C@@H]2O[C@H](COP(=O)(O)OP(=O)(O)O[C@H]3OC(Cn4cc(COCCOCCOCCOCCNC(=O)CCCC[C@@H]5SC[C@@H]6NC(=O)N[C@@H]65)nn4)[C@@H](O)[C@H](O)C3O)C(O)[C@@H]2O)c(=O)[nH]1 (stereo partly shown) [GDP-FAzP4Biotin],30 ± 4.6,13 ± 4.7,60 ± 0.6,9 ± 1.2

# From patent publication US20250222124A1, “PROTEIN CONJUGATES WITH MULTIPLE PAYLOADS AND METHODS FOR MAKING THE SAME” (GLYCO-THERAPY BIOTECHNOLOGY CO., LTD., priority 2022, published 2025)
